The values below are quoted from earlier work in patent US20090253744A1, “Acylated piperidine derivatives as melanocortin-4 receptor modulators” (priority 2006, published 2009).

For series [1], the system named is erectile dysfunction. As to conditions: in vivo.
For series [2], the system named is males with psychogenic erectile dysfunction. Particulars: injected intramuscularly or subcutaneously.

Turning to `CCCc1nn(C)c2c(=O)[nH]c(-c3cc(S(=O)(=O)N4CCN(C)CC4)ccc3OCC)nc12` [Sildenafil], in series [1], the “effective in % of patients” value is recorded as “about 70%”.

For “Ac-Nle-c[Asp-His-DPhe-Arg-Trp-Lys]-NH2 [MT-II]”, the response rate in series [2] was 75%.
